Reference: publication PMC9532951, “Identification and characterization of a novel SNAT2 (SLC38A2) inhibitor reveals synergy with glucose transport inhibition in cancer cells” (Frontiers in Pharmacology, 2022)
Several values for one entry are separate records, joined by “and”; a condition that tells them apart may be missing. Identical values can stand only once.

Columns and labels:
[1] = target: T1, B0AT1 (SLC6A19) (Homo sapiens, UniProt Q695T7); assay: Leucine uptake in CHO cells stably expressing human B0AT1 and collectrin; type: cell-based; details: 150 µM leucine, hit compounds at 30 µM, n = 3
T1 construct: expressed in transfected cells
T1 sequence (Q695T7 1-634): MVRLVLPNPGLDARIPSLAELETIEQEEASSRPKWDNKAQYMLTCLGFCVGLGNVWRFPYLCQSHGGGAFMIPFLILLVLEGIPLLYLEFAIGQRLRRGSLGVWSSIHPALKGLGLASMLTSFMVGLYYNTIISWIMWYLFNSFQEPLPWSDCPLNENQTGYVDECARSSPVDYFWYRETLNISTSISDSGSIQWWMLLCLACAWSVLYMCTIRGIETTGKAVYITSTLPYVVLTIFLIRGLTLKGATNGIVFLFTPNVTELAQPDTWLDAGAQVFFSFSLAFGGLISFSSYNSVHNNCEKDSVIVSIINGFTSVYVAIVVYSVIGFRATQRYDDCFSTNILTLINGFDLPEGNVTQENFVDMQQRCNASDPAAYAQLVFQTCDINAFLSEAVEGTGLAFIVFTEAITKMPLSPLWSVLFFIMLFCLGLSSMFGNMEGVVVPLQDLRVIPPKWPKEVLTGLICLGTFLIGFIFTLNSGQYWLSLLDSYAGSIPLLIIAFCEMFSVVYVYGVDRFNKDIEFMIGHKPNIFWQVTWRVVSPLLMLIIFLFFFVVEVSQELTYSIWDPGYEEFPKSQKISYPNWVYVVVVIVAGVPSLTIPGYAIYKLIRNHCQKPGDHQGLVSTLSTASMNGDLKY
T1 sequence (Q9HBJ8 15-222 partner): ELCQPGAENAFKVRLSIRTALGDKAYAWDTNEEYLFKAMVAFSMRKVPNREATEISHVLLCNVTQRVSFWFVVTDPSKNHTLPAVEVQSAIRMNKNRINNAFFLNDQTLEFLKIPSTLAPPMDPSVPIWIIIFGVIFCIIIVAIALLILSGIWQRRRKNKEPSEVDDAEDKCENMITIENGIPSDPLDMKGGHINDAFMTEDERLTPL

[2] = tested on: HCC1806 cells; assay: Glutamine in media supernatant by LC-MS (glutamine consumption); type: cell-based, human; details: Bay-876 1 μM
Description: Amino acids were analyzed with an Orbitrap Q-Exactive Plus coupled to an UltiMate 3000 RSLCnano system (Thermo Fisher) as described previously ([Gauthier-Coles et al., 2021]).

[3] = tested on: HCC1806 cells; assay: Growth assay (IncuCyte confluence), HCC1806; type: cell-based, human; details: Bay876 alone
Description: (§1) Cells were seeded on 96-well flat bottom plates at approximately 3000 cells/well and incubated in growth medium (DMEM/F12 supplemented with 10% FBS, 2 mM glutamine) for 24 h. The next day, the growth medium was aspirated and exchanged with 300 μL/well of growth medium containing compounds at the indicated concentration. For live cell analysis, plates were placed in the IncuCyte system (Essen Bioscience), which was housed in a cell incubator (37°C, humidified atmosphere composed of 95% air and 5% CO2) and confluence measured at 6-h intervals or at the assay endpoint when untreated control cells reached a confluency >90%. Antibiotics (10 U/mL penicillin and 10 μg/ml streptomycin) were included in the treatment solutions.
(§2) Growth curves were generated using the Gompertz function of OriginPro software: y=ae^−e^(−k(x−xc))
(§3) Where a is the maximum confluence or upper asymptote, k is the growth rate coefficient, xc is the time point at which 50% confluence is reached (inflection point) and e is Euler’s number. Cell growth data are shown as % confluence.

[4] = target: T2, GLUT1 (Homo sapiens, UniProt P11166); assay: [14C]glucose uptake in HPAFII cells; type: cell-based; set-up: endogenous in cells; host or cells: MDA-MB-231 (A17), HPAFII (A18), SKOV3 (A19)
T2 sequence (P11166 1-492): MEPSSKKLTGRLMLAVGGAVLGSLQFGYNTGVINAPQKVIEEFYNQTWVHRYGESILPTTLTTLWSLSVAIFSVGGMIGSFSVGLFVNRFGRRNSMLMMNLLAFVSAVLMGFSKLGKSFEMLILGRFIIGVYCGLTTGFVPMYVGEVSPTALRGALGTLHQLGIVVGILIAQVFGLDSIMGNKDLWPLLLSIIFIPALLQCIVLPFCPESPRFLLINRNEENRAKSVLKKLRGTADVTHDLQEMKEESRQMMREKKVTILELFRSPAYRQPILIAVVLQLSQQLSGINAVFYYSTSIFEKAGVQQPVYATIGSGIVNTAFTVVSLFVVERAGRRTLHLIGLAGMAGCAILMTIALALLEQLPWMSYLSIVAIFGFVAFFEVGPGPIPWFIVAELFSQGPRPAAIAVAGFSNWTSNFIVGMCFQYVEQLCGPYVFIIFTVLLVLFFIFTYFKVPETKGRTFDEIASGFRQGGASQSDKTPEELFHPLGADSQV
Description: (§4) […] Modified Hanks HEPES-buffered salts solution (mHBSS; 137 mM NaCl; 5.4 mM KCl; 2.7 mM K2HPO4; 1 mM CaCl2; 0.5 mM MgCl2; 0.44 mM KH2PO4; 0.4 mM MgSO4; 5 mM D-glucose; 5 mM HEPES; pH 7.4) was used to wash and incubate cells where sodium dependent transport was measured, while N-methyl-D-glucamine (NMDG) and potassium salts substituted sodium in NMDG mHBSS to measure sodium independent uptake. For the assay, cells were seeded in 35 mm dishes and, once confluent, […] of ≥2000 cpm/nmol ([…]). After 6 min, cells were washed thrice with ice-cold mHBSS, lysed with 500 µl of 0.1 M HCl, detached with a cell scraper and triturated. A 400 µl aliquot was used for scintillation counting, while the remainder was saved for protein mass quantification by Bradford assay. Transport rates were normalised to the protein content of the culture dish.

[5] = tested on: HCC1806 cells; assay: Assay of glycolytic activity (extracellular lactate); type: cell-based, human; details: > 0.1 μM Bay-876
Description: Glycolytic activity was measured by detecting extracellular lactate levels over a 48-h time course. HCC1806 and HPAFII cells were seeded on a 24-well plate at approximately 500,000 and 700,000 cells/well, respectively, and incubated in growth medium overnight. The following day, the growth medium was aspirated and each well was washed once with growth medium and 1.3 ml of the treatment solution was added to begin the time-course. In addition to sampling the medium at the start of the experiment, 50 μL was collected from each well at the following time points: 9, 24 and 48 h. Samples were stored at −20°C until further use. Lactate was detected by an enzymatic assay, which consisted of combining in microcentrifuge tubes: 5 μl of sample, 45 μl of water; 25 μl of 40 mM NAD^+; 421 μl of buffer (1M glycine, 600 mM hydrazine sulfate, 5.6 mM EDTA; adjusted to pH 9.5 with sodium hydroxide); and 4 μL of L-lactate dehydrogenase solved at 300U/mL (3.33 mg/ml). The tubes were briefly vortexed and incubated for 15 min before transferring 200 μL of the mixture to a 96-well plate. The calibration curve spanned final concentrations from 5 to 500 μM. Absorbance was measured at 340 nm to detect NADH. Lactate production was normalised to total cellular protein per well as measured by the Bradford assay.

[6] = tested on: SKOV3 xenografts; set-up: method as in Ma et al., 2018; details: mice, ref Ma et al., 2018, cited from earlier work
[7] = tested on: MDA-MB-231 cells; assay: Growth assay (IncuCyte confluence), MDA-MB-231; type: cell-based, human; set-up: key to Growth (Figure 6A) / cell confluence (Figure 6F): % confluence; details: MDA-MB-231; Bay876 1uM; replicates 1-3
Description: as §1, §2, §3
(§5) Synergism between drug combinations was quantified using ZIP synergy scoring as calculated by SynergyFinder ([Yadav et al., 2015]).

[8] = tested on: HPAFII cells; assay: Growth assay (IncuCyte confluence), HPAFII; type: cell-based, human; set-up: key to Growth (Figure 6A) / cell confluence (Figure 6F): % confluence; details: Bay876 1uM, replicates 1-3
Description: as §1, §2, §3, §5

[9] = set-up: method as in Kopitz et al., 2016; details: mice, cancer therapeutic dose; ref Kopitz et al., 2016; cited from earlier work
[10] = target: T2, GLUT1; assay: [14C]glucose uptake in MDA-MB-231 cells; type: cell-based; set-up: endogenous in cells; host or cells: MDA-MB-231 (A17)
[11] = target: T2, GLUT1; assay: [14C]glucose uptake in SKOV3 cells; type: cell-based; set-up: endogenous in cells; host or cells: SKOV3 (A19)
Description: as §4

Row | Compound | Leucine uptake, Mean [1] [nmol / mg protein x 6 min] | glutamine consumption [2] | growth of HCC1806 cells [3] | inhibition of glucose uptake ([4]; 1 µM, 100 µM glucose) | Glucose uptake (nmol / mg protein x 6 min) ([4]; HPAFII, 1uM) | lactate production [5] | lethality ([6]; dose raised from 4.0 mg/kg/day to 7.5 mg/kg/day, 18-days treatment) | body weight [6] | tumour growth [6] | cell confluence (Figure 6F) [7] | cell confluence (Figure 6F) [8] | oral availability and tolerability [9] | inhibition of glucose uptake ([10]; 1 µM, 100 µM glucose) | Glucose uptake (nmol / mg protein x 6 min) ([10]; MDA-MB-231, 1uM) | inhibition of glucose uptake ([11]; 1 µM, 100 µM glucose) | Glucose uptake (nmol / mg protein x 6 min) ([11]; SKOV3, 1uM)
1 | CCNC(=O)/C=C/c1cccc(Br)c1 [Cinromide] | 19.8324 | – | – | – | – | – | – | – | – | – | – | – | – | – | – | –
2 | Cc1c(NC(=O)c2cc(C(N)=O)nc3cc(F)ccc23)c(C(F)(F)F)nn1Cc1ccc(C#N)cc1 [Bay-876] | – | accelerated | quite sensitive | inhibited glucose uptake to comparable levels as 2-DG | 2.423 nmol / mg protein x 6 min and 2.258 nmol / mg protein x 6 min and 2.749 nmol / mg protein x 6 min | blocked completely | caused the death of all animals | did not reduce body weight | reduced the growth of SKOV3 xenografts | 97.85 and 98.65 and 98.1 | 97.55 and 97.2 and 90.5 | orally available and tolerated in mice | inhibited glucose uptake to comparable levels as 2-DG | 4.491 nmol / mg protein x 6 min and 4.087 nmol / mg protein x 6 min and 3.799 nmol / mg protein x 6 min | inhibited glucose uptake to comparable levels as 2-DG | 2.054 nmol / mg protein x 6 min and 1.028 nmol / mg protein x 6 min and 1.361 nmol / mg protein x 6 min
